{"source": "patent US20260183302A1", "about": "“PDK1 REGULATORY COMPOUND AND COMPOSITION CONTAINING THE SAME” (PROVIBIO CO., LTD., priority 2024, published 2026)", "key": {"[1]": {"target": "T1, full-length PDK1 (PDK1-FL) (Homo sapiens, UniProt O15530)", "T1 construct": "the full-length (PDK1-FL) protein of human-derived PDK1; His tag (inferred by me from the Ni-NTA purification); made in house; host or cells: Sf9 insect cells, baculovirus", "T1 sequence (O15530 1-556)": "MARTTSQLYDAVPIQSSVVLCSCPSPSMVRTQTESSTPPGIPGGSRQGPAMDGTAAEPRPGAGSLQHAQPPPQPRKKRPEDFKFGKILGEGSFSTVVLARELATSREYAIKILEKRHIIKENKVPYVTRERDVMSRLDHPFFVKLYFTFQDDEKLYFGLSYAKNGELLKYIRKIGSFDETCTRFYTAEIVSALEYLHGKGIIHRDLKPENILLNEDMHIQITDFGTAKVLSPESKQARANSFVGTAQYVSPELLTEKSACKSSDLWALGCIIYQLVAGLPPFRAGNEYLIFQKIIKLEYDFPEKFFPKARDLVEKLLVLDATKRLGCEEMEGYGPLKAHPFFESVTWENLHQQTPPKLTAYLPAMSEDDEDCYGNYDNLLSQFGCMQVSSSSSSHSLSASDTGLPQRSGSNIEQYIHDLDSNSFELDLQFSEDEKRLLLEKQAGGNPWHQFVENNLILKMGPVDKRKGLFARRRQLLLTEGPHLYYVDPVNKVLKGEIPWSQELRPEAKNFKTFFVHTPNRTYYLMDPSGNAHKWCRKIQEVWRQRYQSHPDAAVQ", "assay": "Binding affinity by Microscale Thermophoresis (MST), full-length PDK1", "conditions": "Kd full-length vs PKD fragment", "procedure": "Microscale Thermophoresis (MST) analysis was performed to quantitatively measure the binding affinity between PDK1 protein and substrate peptides (PDKTide) or the company-developed low-molecular-weight compound (GO88).\nThe target proteins were the full-length (PDK1-FL) protein of human-derived PDK1 and the Protein Kinase Domain (PKD) fragment, which were expressed using a baculovirus expression system in insect cell lines (Sf9).\nThe purity of the purified proteins was confirmed by SDS-PAGE and Coomassie Brilliant Blue staining.\nThe purified protein was labeled with a fluorescent label using the Monolith NT™ RED-NHS Protein Fluorescent Labeling Kit (NanoTemper).\nSpecifically, 20 µM of the protein was dissolved in PBS (pH 7.4) buffer, mixed with the fluorescent reagent, and reacted at room temperature under dark conditions for 30 minutes. The mixture was then buffered with MST analysis buffer (50 mM HEPES, 150 mM NaCl, 1 mM DTT, 0.05% Tween-20, pH 7.5). […]\nThe reaction samples were injected into an MST-specific capillary (NanoTemper) and analyzed using a Monolith NT.115 device (NanoTemper) under laser intensity conditions. […]\nThe measured data were analyzed using MO. Affinity Analysis software (NanoTemper), and the dissociation constant (Kd) was calculated from the binding curve."}, "[2]": {"tested_on": "Human Head and Neck cancer, Fadu", "assay": "Relative cell viability, Fadu (CCK-8)", "assay_type": "cell-based", "conditions": "relative to untreated cells", "procedure": "Human-derived head and neck cancer cell line Fadu and osteosarcoma cell line Saos-2 were cultured in MEM medium containing 10% FBS, 100 U/mL penicillin, and 100 μg/mL streptomycin.\n(§1) Following stabilization, the cells were harvested using Trypsin-EDTA treatment, centrifuged at 1,200 rpm for 3 minutes, the supernatant was removed, and the cells were resuspended in the same medium. They were then seeded into a 96-well plate (Costar 96-well cell culture plate, Corning) at 100 μL per well, and the conditions were adjusted as indicated in Table 5.\n(§2) The cells were cultured in a 5% CO2 incubator at 37° C. for 24 hours, and after stabilization of the cells, each plate was washed with 200 μL of PBS per well and treated with 50 μL of culture medium per well.\n(§3) After that, 10 μL of CCK-8 was added to each well, and the plate was incubated again at 37° C. in a 5% CO2 incubator for 2 hours.\n(§4) In other words, when the survival rate of untreated cells (DMSO) is set at 100%, the relative cell survival rate in each group treated with the drug at different concentrations is indicated."}, "[3]": {"tested_on": "Human Melanoma cancer cell, Malme-3M", "assay": "Relative cell viability, Malme-3M (CCK-8)", "assay_type": "cell-based", "conditions": "48 hours", "procedure": "Human-derived breast cancer cell line MCF-7, human-derived lung cancer cell line A549, human-derived colorectal cancer cell line HCT-116, human pancreatic cancer cell line AsPC-1, glioblastoma cell line A172, and melanoma cell line Malme-3M were obtained from the Korean Cell Bank. gastric cancer cell line SNU-719, and bladder cancer cell line T24 were cultured in RPMI-1640 medium containing 10% FBS.\nas §1, §2, §3, §4"}, "[4]": {"tested_on": "NHDF (Normal Human Dermal Fibroblast) cells", "assay": "Anti-aging in doxorubicin/IGF-1 aged NHDF cells (SA-β-gal, Ki-67 FACS)", "assay_type": "cell-based", "conditions": "Doxorubicin (100 ng/ml) and IGF-1 (100 ng/ml), GO15F 0.01, 1 μM, 7 days", "procedure": "To confirm the anti-aging and rejuvenating effects of the compound GO15F of the present invention, a NHDF (Normal Human Dermal Fibroblast, Promocell) cell model was established by inducing aging with doxorubicin (Doxorubicin), and β-galactosidase activity and Ki-67 expression were analyzed in the cells. First, NHDF cells were seeded at 1×10^4 cells per well in a 12-well plate and stabilized for 24 hours. […] After pre-incubation, the medium was removed, and the cells were cultured for 7 days in medium containing Doxorubicin (100 ng/ml) and IGF-1 (100 ng/ml) with GO15F. During this process, the medium was replaced with fresh medium every 2 days. The cultured cells were washed with PBS, fixed with 1× fixation buffer for 15 minutes, washed again with PBS, and then 300 μL of 1× working SA-β-gal buffer was added to each well. The cells were incubated at 37° C. for 24 hours. After the reaction was terminated, the cells were washed with PBS, and the […] of β-gal-positive cells stained blue was observed and photographed using a light microscope. Additionally, to investigate the effect of the compound (GO15F) of the present invention on proliferation activity in aging-induced NHDF (Normal Human Dermal Fibroblast) cells, Ki-67 expression was measured via FACS analysis. First, NHDF cells were seeded at 1×10^4 cells per well in a 12-well plate and stabilized for 24 hours. […]"}}, "data": [{"compound": "Nc1ncccc1C(=O)NCCCCCCCCCCCCN1CCNCC1", "note": "[Compound 14, 2-Amino-N-(12-(piperazin-1-yl)dodecyl)nicotinamide]", "values": [{"measurement": "binding affinity of full-length PDK1 compared to the PDK fragment", "setting": "[1]", "result": "approximately six times stronger"}]}, {"compound": "12-[4-(2,2-dimethylmorpholin-4-yl)]dodecyl-N-(6-aminopurine-2-yl) carboxamide [Compound 11]", "values": [{"measurement": "Relative cell viability (%)", "setting": "[2]; concentration 1 μM", "result": 2.08, "unit": "%"}, {"measurement": "Relative cell viability (%)", "setting": "[2]; concentration 10 μM", "result": 9.68, "unit": "%"}, {"measurement": "Relative cell viability (%)", "setting": "[2]; concentration 30 μM", "result": 8.51, "unit": "%"}, {"measurement": "Relative cell viability (%)", "setting": "[2]; concentration 50 μM", "result": 4.78, "unit": "%"}, {"measurement": "Relative cell viability (%)", "setting": "[3]; 1 μM", "result": 44.06, "unit": "%"}, {"measurement": "Relative cell viability (%)", "setting": "[3]; 10 μM", "result": 37.40, "unit": "%"}, {"measurement": "Relative cell viability (%)", "setting": "[3]; 30 μM", "result": 36.80, "unit": "%"}, {"measurement": "Relative cell viability (%)", "setting": "[3]; 50 μM", "result": 38.87, "unit": "%"}]}, {"compound": "Nc1ncccc1C(=O)NCCCCCCCCCCCCF", "note": "[Compound 57, 2-Amino-N-(12-fluoro-dodecyl)-nicotinamide]", "values": [{"measurement": "β-galactosidase activity (β-gal-positive cells)", "setting": "[4]", "result": "number of β-gal-positive cells decreased"}]}]}
